These results are taken from paper PMC6792352, “Limited Chemical Structural Diversity Found to Modulate Thyroid Hormone Receptor in the Tox21 Chemical Library” (Environmental Health Perspectives, 2019).

Counter-ions that a name gives are not always drawn.

The term CC50 denotes the concentration at which the toxic effect on the cells reaches its halfway point. Read a low CC50 as greater toxicity to the cells.

The data set can be described thus: in vitro. The settings on record: rat, gh3-tre-luc cells.

As for `C=CC(=O)OCCC(=O)O` [2-Carboxyethyl acrylate], the CC50 at 24 h (AC50 (uM) modified / 1000) is over 100 µM. Molecule `NNCCO` [2-Hydroxyethylhydrazine] had a CC50 at 24 h (AC50 (uM) modified / 1000, Tox21_110001=Tox21_301204, viability, 1 nM T3 present, 24 h) of over 90 µM. Molecule `CCC(C)(O)CCCC(C)C` (stereo not shown) [3,7-Dimethyl-3-octanol] gave a CC50 at 24 h (AC50 (uM) modified / 1000) of over 90 µM. Molecule `CC(C)(C)NCC(O)CSc1nc(-c2ccc(C(N)=O)s2)cs1` (stereo not shown) [Arotinolol hydrochloride] came in with a CC50 at 24 h (AC50 (uM) modified / 1000) of over 50 µM.

Turning to `c1ccc2sc(SNC3CCCCC3)nc2c1` [N-Cyclohexyl-2-benzothiazolesulfenamide], where the note is “AC50 (uM) modified / 1000”, the CC50 at 24 h was over 90 µM. On the same count and under the same terms, the same measure for `CCCCOCCOCCOC(C)=O` [2-(2-Butoxyethoxy)ethyl acetate]: over 90 µM; for `O=C1OC(=O)C2CCCCC12` (stereo not shown) [Hexahydrophthalic anhydride]: over 90 µM. Still for that read-out and setting: the same measure for `CC(=O)OCC(=O)[C@@]1(O)CC[C@H]2[C@@H]3CCC4=CC(=O)CC[C@]4(C)[C@H]3[C@@H](O)C[C@@]21C` [Hydrocortisone acetate]: over 50 µM; for `CCCCCCCCCCCCCCCC(=O)O` [Hexadecanoic acid]: over 90 µM. In the case of `CCCCCC(=O)O` [Hexanoic acid], where the note is “AC50 (uM) modified / 1000”, the CC50 at 24 h was over 90 µM. Molecule `O=S(=O)(O)c1cc(I)c(O)c2ncccc12` [Loretin] had a half-maximal cytotoxic concentration (CC50) at 24 h (AC50 (uM) modified / 1000) of over 50 µM. As to `c1ccc(CN(CC2=NCCN2)c2ccccc2)cc1` [Antazoline hydrochloride], the midpoint of cytotoxicity (AC50 (uM) modified / 1000), the CC50 at 24 h, lay at 21.1 µM.

Molecule `CCn1cc(C(=O)O)c(=O)c2cc(F)c(N3CCNC(C)C3)c(F)c21` (stereo not shown) [Lomefloxacin hydrochloride] returned a CC50 at 24 h (AC50 (uM) modified / 1000) of over 50 µM. As for `Cc1cc(-c2ccc(N=Nc3cc(S(=O)(=O)O)c4ccccc4c3N)c(C)c2)ccc1N=Nc1cc(S(=O)(=O)O)c2ccccc2c1N` [C.I. Direct Red 2], the CC50 at 24 h (AC50 (uM) modified / 1000) came out at 62.5 µM. The same measure, in the same setting: the same measure for `CNC(=O)Oc1cccc2ccccc12` [Carbaryl]: over 90 µM. Molecule `CCCCOCCOCCOC(=O)CCCCC(=O)OCCOCCOCCCC` [Bis[2-(2-butoxyethoxy)ethyl] adipate] returned a CC50 at 24 h (AC50 (uM) modified / 1000) of over 90 µM. Molecule `CCOC(=O)C(C)O` (stereo not shown) [Ethyl lactate] had a CC50 at 24 h (AC50 (uM) modified / 1000) of over 90 µM.

On to `CN(C)CCc1ccc(O)cc1` [Hordenine], for which, for the setting “AC50 (uM) modified / 1000”, the cytotoxic concentration (CC50) at 24 h was over 50 µM. As to `O=C1Cc2ccccc2N1c1c(Cl)cccc1Cl` [1-(2,6-Dichlorophenyl)-2-indolinone], where the note is “AC50 (uM) modified / 1000”, the CC50 at 24 h was over 90 µM.

Where the note is “AC50 (uM) modified / 1000”, `C[N+]1(CC2COC(c3ccccc3)(c3ccccc3)O2)CCCCC1` (stereo not shown) [Anacolin] registered a CC50 at 24 h of over 50 µM. Turning to `CCCCC/C=C/C/C=C/CCCCCCCC(=O)OCC` [Ethyl linoleate], the CC50 at 24 h (AC50 (uM) modified / 1000) is over 50 µM.

Take `O=C(Cn1ccnc1[N+](=O)[O-])NCc1ccccc1` [Benznidazole]: the CC50 at 24 h (AC50 (uM) modified / 1000) was over 50 µM. `Cc1ccc(N=Nc2c(O)c(C(=O)O)cc3ccccc23)c(S(=O)(=O)O)c1` [D&C Red No. 7]: the CC50 at 24 h (AC50 (uM) modified / 1000) is 27.6 µM. Still for that read-out and setting: with `CN(C)C(=O)CNC(=O)Cc1ccccc1` [N,N-Dimethyl-2-(2-phenylacetamido)acetamide] the figure was over 50 µM; with `N=C(N)NCCC[C@H](NC(=O)[C@@H]1CCCN1C(=O)[C@@H]1CSSCCC(=O)N[C@@H](Cc2ccc(O)cc2)C(=O)N[C@@H](Cc2ccccc2)C(=O)N[C@@H](CCC(N)=O)C(=O)N[C@@H](CC(N)=O)C(=O)N1)C(=O)NCC(N)=O` [Desmopressin acetate], over 50 µM. `CCC1(c2cccc(O)c2)CCCCN(C)C1` (stereo not shown) [Meptazinol hydrochloride] came in with a CC50 at 24 h (AC50 (uM) modified / 1000, Tox21_110001=Tox21_110665, viability, 1 nM T3 present, 24 h) of over 20 µM.

For `CCC[C@H](N[C@@H](C)C(=O)N1[C@H](C(=O)O)C[C@@H]2CCCC[C@@H]21)C(=O)OCC` [Perindopril], for the setting “AC50 (uM) modified / 1000”, the CC50 at 24 h is over 50 µM. On the same count and under the same terms, the same measure for `Cc1ccc(OC(=O)CC(C)C)cc1` [4-Methylphenyl 3-methylbutanoate]: over 90 µM. As for `NCC(O)CC(=O)O` (stereo not shown) [4-Amino-3-hydroxybutyric acid], the CC50 at 24 h (AC50 (uM) modified / 1000) is over 50 µM. With `CCCCCCOC(=O)CCC` [Hexyl butyrate], under “AC50 (uM) modified / 1000”, the CC50 at 24 h is over 90 µM. On the same count and under the same terms, the same measure for `Brc1cc(Oc2cc(Br)c(Br)c(Br)c2Br)c(Br)c(Br)c1Br` [Octabromodiphenyl ether]: over 90 µM; for `CCCCCCOC(C)=O` [Hexyl acetate]: over 90 µM. Turning to `O=C1OC(CN2CCOCC2)CN1/N=C/c1ccc([N+](=O)[O-])o1` (stereo not shown) [Furaltadone hydrochloride], the CC50 at 24 h (AC50 (uM) modified / 1000) is over 20 µM. The molecule `C=C(C)c1cccc(C(C)(C)N=C=O)c1` [1-(2-Isocyanatopropan-2-yl)-3-(prop-1-en-2-yl)benzene] returned a CC50 at 24 h (AC50 (uM) modified / 1000) of over 90 µM. Same read-out and setting: the same measure for `CCOCCO` [2-Ethoxyethanol]: over 90 µM; for `CCOS(C)(=O)=O` [Ethyl methanesulfonate]: over 90 µM; for `O=C1CC[C@@]2(O)[C@H]3Cc4ccc(O)c5c4[C@@]2(CCN3CC2CC2)[C@H]1O5` [Naltrexone]: over 50 µM.

Regarding `N#CC(C#N)=NNc1cccc(Cl)c1` [Carbonyl cyanide chlorophenylhydrazone], the midpoint of cytotoxicity (AC50 (uM) modified / 1000), the CC50 at 24 h, lay at 1.97 µM. For the setting “AC50 (uM) modified / 1000”, `CC(=O)C(Cl)C(=O)N(C)C` (stereo not shown) [2-Chloro-N,N-dimethyl-3-oxobutanamide] showed a CC50 at 24 h of over 90 µM.

For the setting “AC50 (uM) modified / 1000”, `C[C@H](CCC(=O)O)[C@H]1CC[C@H]2[C@@H]3[C@H](O)C[C@@H]4C[C@H](O)CC[C@]4(C)[C@H]3C[C@H](O)[C@]12C` [Cholic acid piperazine (1:1)] showed a 50% cytotoxic concentration (CC50) at 24 h of over 50 µM. For the setting “AC50 (uM) modified / 1000”, `CC(=O)O[C@H]1C[C@@H]2CC[C@@H]3[C@H](CC[C@@]4(C)[C@H]3C[C@H]([N+]3(C)CCCCC3)[C@@H]4OC(C)=O)[C@@]2(C)C[C@@H]1N1CCCCC1` [Vecuronium bromide] had a CC50 at 24 h of over 50 µM. Still for that read-out and setting: the same measure for `Cc1ccc(S(N)(=O)=O)cc1` [4-Toluenesulfonamide]: over 90 µM. Consider `ClCCCCl` [1,3-Dichloropropane], for which, for the setting “AC50 (uM) modified / 1000, Tox21_110001=Tox21_201140, viability, 1 nM T3 present, 24 h”, the CC50 at 24 h is over 100 µM. Regarding `CC1CC(=O)NN=C1c1ccc(NCC(C)(C)NCC(O)COc2cc(Cl)ccc2C#N)cc1` (stereo not shown) [Oberadilol], the CC50 at 24 h (AC50 (uM) modified / 1000) is over 50 µM. On the same count and under the same terms, the same measure for `CC(C)C1CCC(O)CC1` (stereo not shown) [4-Isopropylcyclohexanol]: over 90 µM. `Cc1ccc(C(N)=O)cc1N` [3-Amino-4-methylbenzamide]: for the setting “AC50 (uM) modified / 1000”, the CC50 at 24 h is over 90 µM. `COc1ccccc1O` [2-Methoxyphenol] displayed a cytotoxic concentration (CC50) at 24 h (AC50 (uM) modified / 1000) of over 90 µM. The same measure, in the same setting: with `CCCC(O)C(CC)CO` (stereo not shown) [2-Ethyl-1,3-hexanediol] the figure was over 90 µM.

As to `CC(CO)(CO)[N+](=O)[O-]` [2-Methyl-2-nitro-1,3-propanediol], the CC50 at 24 h (AC50 (uM) modified / 1000) was over 90 µM. Molecule `CCCN(C1CCN(C(=O)C2CCNCC2)CC1)[C@@H]1CCc2ccc(OC)cc2C1` [PharmaGSID_48509] returned a CC50 at 24 h (AC50 (uM) modified / 1000) of 69.1 µM. The molecule `CN(C)Cc1ccccc1` [N,N-Dimethylbenzylamine] came in with a CC50 at 24 h (AC50 (uM) modified / 1000) of over 50 µM. On the same count and under the same terms, the same measure for `O=C1NC(=O)c2cccc3cccc1c23` [1H-Benzo[de]isoquinoline-1,3(2H)-dione]: over 90 µM. Still for that read-out and setting: with `COC(=O)C(Br)CBr` (stereo not shown) [Methyl 2,3-dibromopropionate] the figure was over 90 µM; with `CN(C)CCOCCN(C)CCO` [2-[{2-[2-(Dimethylamino)ethoxy]ethyl}(methyl)amino]ethanol], over 90 µM. Same read-out and setting: the same measure for `CCCOc1ccc(C(=O)OCCN(CC)CC)cc1N` [Proparacaine hydrochloride]: over 50 µM; for `O=C(O)c1ccccc1Cl` [2-Chlorobenzoic acid]: over 90 µM; for `Cc1nc2ccccn2c(=O)c1CCN1CCC(C(=O)c2ccc(F)cc2)CC1` [Pirenperone]: over 50 µM. In turn, `CCN(CCO)CCn1c(Cc2ccccc2)nc2c1c(=O)n(C)c(=O)n2C` [Bamifylline Hydrochloride] yielded a CC50 at 24 h (AC50 (uM) modified / 1000) of over 50 µM. Same read-out and setting: with `Cc1c(C(C)C)c(=O)n(-c2ccccc2)n1C` [Propyphenazone] the figure was over 50 µM; with `Oc1ccc2c(c1)Cc1ccccc1-2` [2-Hydroxyfluorene], 77.9 µM. On to `C=C(Cl)CCl` [2,3-Dichloro-1-propene], for which, for the setting “AC50 (uM) modified / 1000, Tox21_110001=Tox21_200640, viability, 1 nM T3 present, 24 h”, the CC50 at 24 h was over 90 µM. As for `CC(O)(c1ccc(Cl)cc1)c1ccc(Cl)cc1` [Chlorfenethol], where the note is “AC50 (uM) modified / 1000”, the CC50 at 24 h came to 76.2 µM.

Under “AC50 (uM) modified / 1000”, `C=CC(C)(O)CC/C=C(/C)CCC=C(C)C` (stereo not drawn) [cis-Nerolidol] gave a CC50 at 24 h of over 90 µM.

For the molecule `COC(=O)C(C)N(C(=O)c1ccco1)c1c(C)cccc1C` (stereo not shown) [Furalaxyl], the CC50 at 24 h (AC50 (uM) modified / 1000) was over 90 µM.

`C=CCCCCCCCC` [1-Decene]: the CC50 at 24 h (AC50 (uM) modified / 1000) was over 90 µM. The same measure, in the same setting: the same measure for `CCCCCCCCCCO` [1-Decanol]: over 90 µM; for `O=C(NNCNNC(=O)c1ccncc1)c1ccncc1` [Metazide]: over 50 µM; for `CCCC(=O)CC` [3-Hexanone]: over 90 µM. On the same count and under the same terms, the same measure for `CN1CCC[C@@H]1c1cccnc1` [D-Nicotine]: over 50 µM.

Molecule `O=C/C=C/c1ccco1` [(E)-3-(2-Furyl)acrolein] showed a 50% cytotoxic concentration (CC50) at 24 h (AC50 (uM) modified / 1000, Tox21_110001=Tox21_202896, viability, 1 nM T3 present, 24 h) of over 90 µM. `CCCCCC(C)O` (stereo not shown) [2-Heptanol]: the half-maximal cytotoxic concentration (CC50) at 24 h (AC50 (uM) modified / 1000) was over 90 µM. The same measure, in the same setting: the same measure for `CN1CCC(=C2c3ccccc3Sc3ccccc32)CC1` [Pimethixene maleate]: 4.52 µM; for `Cc1cc2c(cc1C(F)(F)F)N(C(=O)Nc1ccc(Oc3cccnc3C)nc1)CC2` [SB243213A]: 69.4 µM. `C1CSCCS1` [1,4-Dithiane] registered a CC50 at 24 h (AC50 (uM) modified / 1000) of over 90 µM.

`CC(C)=CCC/C(C)=C/CO` [Geraniol] registered a 50% cytotoxic concentration (CC50) at 24 h (AC50 (uM) modified / 1000) of over 90 µM. Still for that read-out and setting: with `Nc1ccc(Cl)c(Cl)c1` [3,4-Dichloroaniline] the figure was over 90 µM. Where the note is “AC50 (uM) modified / 1000”, `C=CCc1ccc(OC)cc1` [Estragole] displayed a CC50 at 24 h of over 90 µM. For the molecule `COC(=O)C(C)N(C(=O)Cc1ccccc1)c1c(C)cccc1C` (stereo not shown) [Benalaxyl], the CC50 at 24 h (AC50 (uM) modified / 1000) was over 90 µM. Still for that read-out and setting: the same measure for `Nc1ccccc1S(=O)(=O)O` [Orthanilic acid]: over 90 µM.
